# Reference: paper PMC2248166, “Quantitative peptide binding motifs for 19 human and mouse MHC class I molecules derived using positional scanning combinatorial peptide libraries” (Immunome Research, 2008)
# Columns and labels:
# [1] = target: HLA A*0201 (Homo sapiens, UniProt P04439, D140Y/D185E/D98H/E176V/E277Q/G131W/G231S/I119V/I121R/I166T/I218V/L300P/L318F/N151K/N90K/P208A/P217A/Q86G/Q94H/R138H/R169H/T345S); conditions: positional scanning combinatorial 9-mer library; normalized to 1.0 for the best residue at each position
# [2] = target: HLA B*5802 (Homo sapiens, UniProt P01889, A329T/C349S/D201E/D98Y/E176V/E187L/E204Q/E69T/G107R/I218V/I90N/K202T/L105A/N104I/N87E/Q89R/Q94S/R106L/R155S/R180L/R86G/S101N/S121W/S35A/S48A/V127L/V306I/V36M/Y140S/Y91M); format: binding
# [3] = target: HLA B*5101 (Homo sapiens, UniProt P01889, A329T/A93T/A95T/C349S/D138N/D201E/D98Y/E187L/E204Q/E69T/G107R/I218V/K202T/L105A/L119W/N104I/Q94N/R106L/R155S/R180L/S101N/S121T/S35A/S48A/V306I/V36M/Y195H/Y91F); format: binding
# [4] = target: HLA B*0801 (Homo sapiens, UniProt P01889, A93T/A95T/D138N/E176V/E187T/K202T/Q94N/R180D/S35A/V36M/Y33D/Y91F); experiment: biochemical; format: binding
# [5] = target: HLA B*3501 (Homo sapiens, UniProt P01889, A329T/A93T/A95T/C349S/D201E/D98Y/E176V/E187L/E204Q/E69T/I218V/K202T/L119I/Q94N/R155S/R180L/S121R/S35A/S48A/T118I/V127L/V306I/V36M/Y140S/Y91F); format: binding
# [6] = target: H-2 D^d (Mus musculus, UniProt P01900); format: binding
# [7] = target: HLA B*2705 (Homo sapiens, UniProt P01889, D138H/D201E/E176V/E204Q/G107R/H137Y/K202T/N104T/N87E/Q56L/Q94K/R106L/R155S/R180L/S101D/S121N/S48T/Y140D/Y33H/Y91C); format: binding; conditions: positional scanning combinatorial 9-mer library; normalized to 1.0 for the best residue at each position
# [8] = target: HLA B*0702 (Homo sapiens, UniProt P01889); format: binding; conditions: positional scanning combinatorial 9-mer library; normalized to 1.0 for the best residue at each position
# [9] = target: HLA B*5401 (Homo sapiens, UniProt P01889, A329T/C349S/D138N/D201E/E176V/E187T/E204Q/E69G/I76V/K202T/L119W/R155S/R180L/S121T/S35A/S48A/V127L/V306I/V36M/Y140L); format: binding
# [10] = target: HLA A*3201 (Homo sapiens, UniProt P04439, A270S/D101S/D185E/E176V/E277Q/F133L/G103R/G107R/G231S/H175R/I121M/I218V/I322F/K168Q/L105A/L300P/L318F/M331R/P208A/P217A/Q94H/R106L/R138Q/S129P/T104I/T323A/T345S/V100E/V321M/V358M); experiment: biochemical; format: binding
# [11] = target: HLA A*3001 (Homo sapiens, UniProt P04439, D140H/D185E/E176W/F33S/G80R/H175R/K168Q/R138E/R41S); experiment: biochemical; format: binding
# [12] = target: H-2 K^k (Mus musculus, UniProt P04223); format: binding
# [13] = target: H-2 D^b (Mus musculus, UniProt P01899); format: binding
# [14] = target: HLA B*5301 (Homo sapiens, UniProt P01889, A329T/A93T/A95T/C349S/D201E/D98Y/E176V/E187L/E204Q/E69T/G107R/I218V/K202T/L105A/L119I/N104I/Q94N/R106L/R155S/R180L/S101N/S121R/S35A/S48A/T118I/V127L/V306I/V36M/Y140S/Y91F); format: binding
# [15] = target: HLA B*5801 (Homo sapiens, UniProt P01889, A329T/C349S/D201E/D98Y/E176V/E187L/E204Q/E69T/G107R/I218V/I90N/K202T/L105A/L119I/N104I/N87E/Q89R/Q94S/R106L/R155S/R180L/R86G/S101N/S121R/S35A/S48A/T118I/V127L/V306I/V36M/Y140S/Y91M); format: binding
# [16] = target: HLA B*1501 (Homo sapiens, UniProt P01889, A329T/A93T/A95T/C349S/D201E/D98Y/E187L/E204Q/E69M/E70A/K202T/N87E/Q94N/R155S/R180W/S121R/S35A/S48A/V306I/V36M/Y140S/Y91S); experiment: biochemical; format: binding
# [17] = target: HLA A*6802 (Homo sapiens, UniProt P04439, A269V/D140Y/D185E/E176V/E277Q/E87N/F33Y/G231S/I121R/I166T/I218V/L180W/L300P/L318F/N151K/P208A/P217A/Q86R/R138H/R169H/S129P/T345S/V36M); format: binding
# [18] = target: HLA B*1503 (Homo sapiens, UniProt P01889, A329T/A93T/A95T/C349S/D201E/D98Y/E187L/E204Q/K202T/N87E/Q94N/R155S/R180L/S121R/S35A/V306I/V36M/Y140S/Y91S); experiment: biochemical; format: binding
# Chain of H-2 D^d (P01900 whole entry, looked up): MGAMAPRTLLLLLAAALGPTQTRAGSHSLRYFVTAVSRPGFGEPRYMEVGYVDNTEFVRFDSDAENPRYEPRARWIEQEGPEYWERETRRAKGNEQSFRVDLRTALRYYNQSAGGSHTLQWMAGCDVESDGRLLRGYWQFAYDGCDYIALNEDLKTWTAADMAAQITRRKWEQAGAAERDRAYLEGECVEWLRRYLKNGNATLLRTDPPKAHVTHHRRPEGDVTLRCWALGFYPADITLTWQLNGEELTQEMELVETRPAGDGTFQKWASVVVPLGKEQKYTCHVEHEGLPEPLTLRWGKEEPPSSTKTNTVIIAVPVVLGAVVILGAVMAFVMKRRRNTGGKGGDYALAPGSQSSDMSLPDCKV
# Chain of H-2 K^k (P01887 21-119): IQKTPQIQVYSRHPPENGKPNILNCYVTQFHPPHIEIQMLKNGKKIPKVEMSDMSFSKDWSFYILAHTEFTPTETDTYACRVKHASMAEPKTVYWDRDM
# Chain of H-2 K^k (P04223 22-369): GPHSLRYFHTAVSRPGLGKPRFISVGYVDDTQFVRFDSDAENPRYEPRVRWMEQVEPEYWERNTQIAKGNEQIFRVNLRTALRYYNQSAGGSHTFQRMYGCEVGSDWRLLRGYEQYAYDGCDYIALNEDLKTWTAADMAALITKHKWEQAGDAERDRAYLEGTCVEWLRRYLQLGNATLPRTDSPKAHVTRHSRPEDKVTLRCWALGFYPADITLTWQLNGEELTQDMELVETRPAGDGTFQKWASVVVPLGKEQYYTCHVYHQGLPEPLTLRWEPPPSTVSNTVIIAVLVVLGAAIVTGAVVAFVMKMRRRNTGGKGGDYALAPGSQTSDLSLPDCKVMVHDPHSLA
# Chain of H-2 D^b (P01887 21-119): as the sequence (P01887 21-119) above
# Chain of H-2 D^b (P01899 25-362): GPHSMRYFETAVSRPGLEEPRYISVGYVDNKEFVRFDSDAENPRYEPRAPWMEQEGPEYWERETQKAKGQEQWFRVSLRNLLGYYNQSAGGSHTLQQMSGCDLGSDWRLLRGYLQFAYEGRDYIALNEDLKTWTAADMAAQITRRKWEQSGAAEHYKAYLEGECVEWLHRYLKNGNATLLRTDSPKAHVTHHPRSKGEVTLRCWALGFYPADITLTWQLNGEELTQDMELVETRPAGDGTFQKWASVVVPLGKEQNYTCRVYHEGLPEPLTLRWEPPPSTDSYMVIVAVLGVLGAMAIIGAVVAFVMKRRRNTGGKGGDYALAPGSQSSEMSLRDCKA
Sequence,"Normalized average relative binding affinity (ARB), HLA A*0201 [1]","Normalized average relative binding affinity (ARB), HLA B*5802 [2]","Normalized average relative binding affinity (ARB), HLA B*5101 [3]","Normalized average relative binding affinity (ARB), HLA B*0801 [4]","Normalized average relative binding affinity (ARB), HLA B*3501 [5]","Normalized average relative binding affinity (ARB), H-2 Dd [6]","Normalized average relative binding affinity (ARB), HLA B*2705 [7]","Normalized average relative binding affinity (ARB), HLA B*0702 [8]","Normalized average relative binding affinity (ARB), HLA B*5401 [9]","Normalized average relative binding affinity (ARB), HLA A*3201 [10]","Normalized average relative binding affinity (ARB), HLA A*3001 [11]","Normalized average relative binding affinity (ARB), H-2 Kk [12]","Normalized average relative binding affinity (ARB), H-2 Db [13]","Normalized average relative binding affinity (ARB), HLA B*5301 [14]","Normalized average relative binding affinity (ARB), HLA B*5801 [15]","Normalized average relative binding affinity (ARB), HLA B*1501 [16]","Normalized average relative binding affinity (ARB), HLA A*6802 [17]","Normalized average relative binding affinity (ARB), HLA B*1503 [18]"
XNXXXXXXX [3064.0032],0.0062,0.20,0.022,0.16,0.0078,0.018,0.0016,0.0028,0.0018,0.025,0.10,0.0053,0.11,0.0083,0.012,0.052,0.034,0.032
XXHXXXXXX [3064.0047],0.27,0.42,0.60,0.35,0.094,0.0028,0.26,0.39,0.013,0.24,0.089,0.72,0.20,0.059,0.19,0.68,0.14,0.19
XXVXXXXXX [3064.0058],0.25,0.56,0.25,0.024,0.19,0.0094,0.19,0.040,0.034,0.31,0.0059,0.26,0.17,0.11,1.0,0.14,0.64,1.0
XXXCXXXXX [3064.0062],0.20,0.52,0.26,0.41,0.089,0.56,0.25,0.18,0.22,0.12,0.31,0.37,1.0,0.14,0.23,0.39,0.13,0.34
XXGXXXXXX [3064.0046],0.098,0.17,0.078,0.086,0.068,0.0040,0.17,0.052,0.025,0.20,0.0022,0.19,0.13,0.046,0.12,0.14,0.061,0.063
LXXXXXXXX [3064.0010],0.054,0.044,0.41,0.22,0.31,0.29,0.26,0.23,0.19,0.48,0.081,0.49,0.20,0.14,0.53,0.61,0.071,0.52
